Measurements reported in patent US6964870B2, “Enhanced selection of genetically modified pine embryogenic tissue” (MeadWestvaco Corporation, priority 2000, dated 2005).

Assays:
Format in all cases: cell-based
[1] = tested on: cell lines that are progeny of the elite P. taeda line 7-56; assay: Biolistic transformation, ABA in recovery and selection media (Example 2)
Experimental: Loblolly pine cell lines were used which had been grown and maintained as described in Example 1 above, and prepared for biolistic transformation as described in Example 1 above. In this example, only cell lines that are progeny of the elite P. taeda line 7-56 were used. Following bombardment the support membranes bearing the bombarded embryogenic cells were transferred to DCR2 maintenance media, either with or without the addition of 10 mg/l ABA for one week. Following this the support membranes bearing the bombarded embryogenic cells were placed on plates containing gelled DCR selection medium with 10 mg/l abscisic acid (ABA), and cultured for three days, so that all cells were exposed to 10 mg/l ABA in the selection medium for the first three days of selection. Following this the support membranes bearing the bombarded embryogenic cells were evenly divided among gelled media containing 5, 10, or 20 mg/l ABA for a period of two weeks. Following this, the support membranes bearing the bombarded embryogenic cells were evenly divided among gelled media containing 0, 5, 10, or 20 mg/l ABA for the remaining selection period, and transferred every three weeks to fresh selection media of the same composition.
The cells were also checked for the presence of sequences by PCR amplification using primers specific for both the uidA and nptII transgenes, techniques well known to those skilled in the art of plant transformation.

[2] = tested on: P. taeda embryogenic cell line P5; assay: Agrobacterium transformation, transformants per selection plate with ABA in preparation/recovery/selection media
Excerpt: (§1) Seven loblolly pine cell lines or hybrid cell lines from seven widely diverse genetic backgrounds were used in this experiment. To prepare for gene transfer using Agrobacterium, fabric supports were sterilized by autoclaving and placed in a sterile Buchner funnel, and one to five milliliters of embryogenic suspension was pipetted onto each support such that the embryogenic tissue was evenly distributed over its surface. Following this the liquid medium was suctioned from the tissues and each support bearing the embryogenic tissue was placed on gelled medium for inoculation by Agrobacterium. In this case the medium used was the same as the preparation medium described in Example 1 above, except that the medium, used here for preparation and co-cultivation of the cells, contained ABA at 0, 10, or 30 mg/L as an experimental condition. Genes were then introduced into the plant material by co-cultivation with Agrobacterium(Wenck et al. 1999). Specifically, gene constructs containing a reporter gene and a selectable marker were introduced into Agrobacterium tumefaciens strain EHA105 with the virulence-enhancing plasmid pTOK47 (Wenck et al. 1999), by techniques well known to those skilled in the art, and virulence was then induced with administration of acetosyringone by commonly used techniques, well known to those skilled in the art, whereupon the induced Agrobacterium was dripped over the plant material and these were co-cultivated in the dark at 23°±2° C. for approximately 24-72 hours. Those skilled in the art recognize that many different gene constructs, plasmids, strains, media, and co-cultivation times and protocols would be suitable for use in the present method.
(§2) Following co-cultivation, cells were re-suspended into fresh DCR4 liquid wash medium (Table 2) containing eradicants such as 200-400 mg/L TIMENTIN® antibiotic. The DCR4 liquid wash medium was contained in sterile “baby food” jars with MAGENTA® aerated lids, conventional beakers, or multi-well plates. Resuspension was initiated by grasping the membrane support bearing the infected cells, using forceps, and rolling or folding it so that it could be taken up and placed into the liquid in the wash container. The liquid was then agitated to get the cells into suspension, and the membrane support was scraped with sterile forceps if cells appeared to be adhering to it. Once the cells were in suspension, the membrane was removed with sterile forceps.
(§3) Following this wash step, the cells were plated onto fresh sterile support membranes of the same type as used in the previous step, again by placing the fresh sterile support membranes in a sterile Buchner funnel, pipetting the suspension of plant cells onto the membranes, and again suctioning the liquid medium from the tissues using a mild vacuum. The cells were again resuspended in and cultured in fresh sterile wash medium by agitating the membrane bearing the cells in the liquid, again removing cells that appeared to be adhering by gently scraping with forceps. The cells were then re-plated on fresh membrane supports over Buchner funnels. This procedure was repeated twice before the cells were again plated on supports as described above.
(§4) Supports bearing approximately 0.1 g of embryogenic tissue were divided onto recovery media (having the same formulation as the maintenance medium except for the addition of 400 mg/L TIMENTIN® antibiotic) either containing or lacking ABA. […] Concentrations of ABA used in all these media were 0, 10, and 30 mg/l.
(§5) Cells were maintained on the selection media, with transfer of the polyester support membranes to fresh selection media of the same composition, every two weeks for a total of eight weeks of selection. Cells from actively growing sublines from selection were examined using stereomicroscopes for the expression of the visual marker gene uidA at the conclusion of the selection period. […]

[3] = tested on: P. rigida Hybrid embryogenic cell line H1; assay: as above
Excerpt: as §1, §2, §3, §4, §5

[4] = tested on: P. taeda embryogenic cell line P6; assay: as above
Excerpt: as §1, §2, §3, §4, §5

[5] = tested on: P. taeda embryogenic cell line P3; assay: as above
Excerpt: as §1, §2, §3, §4, §5

[6] = tested on: P. taeda embryogenic cell line P1; assay: as above
Excerpt: as §1, §2, §3, §4, §5

[7] = tested on: P. taeda embryogenic cell line P4; assay: as above
Excerpt: as §1, §2, §3, §4, §5

[8] = tested on: P. taeda embryogenic cell line P2; assay: as above
Excerpt: as §1, §2, §3, §4, §5

[9] = ABA mg/l in preparation/recovery/selection medium 0/0/10
[10] = ABA mg/l in preparation/recovery/selection medium 0/0/30
[11] = ABA mg/l in preparation/recovery/selection medium 0/10/10
[12] = ABA mg/l in preparation/recovery/selection medium 0/10/30
[13] = ABA mg/l in preparation/recovery/selection medium 0/30/30
[14] = ABA mg/l in preparation/recovery/selection medium 10/10/10
[15] = ABA mg/l in preparation/recovery/selection medium 30/10/10
[16] = ABA mg/l in preparation/recovery/selection medium 30/30/30

With `CC1=CC(=O)CC(C)(C)[C@@]1(O)/C=C/C(C)=C\C(=O)O` [ABA, abscisic acid] the “number of transformants detected” value ([1]; 10 mg/L ABA in the recovery media) was “did not significantly increase the number of transformants detected”, the “transformants recovered after ten weeks of selection” value ([1]; 5, 10, or 20 mg/l ABA present for the latter 9 weeks of selection) was “Transformants were recovered” and the “transformants recovered after ten weeks of selection” value ([1]; ABA concentration increased to 20 mg/l after the first transfer on selection media) was “the largest number of transformants were recovered”. The “Average (n = 12) Number of Transformants observed per Selection Plate” value (“Average (n = 12) Number … per Selection Plate” for short) [2, 9] was 18.1 +/− 4.0, the “Average (n = 12) Number … per Selection Plate” value [2, 10] was 5.5 +/− 3.1 and the “Average (n = 12) Number … per Selection Plate” value [2, 11] was 2.4 +/− 2.0. For the same molecule, the “Average (n = 12) Number … per Selection Plate” value [2, 12] was 7.2 +/− 2.1, the “Average (n = 12) Number … per Selection Plate” value [2, 13] was 3.3 +/− 2.1 and the “Average (n = 12) Number … per Selection Plate” value [2, 14] was 10.3 +/− 2.4. For the same molecule, the “Average (n = 12) Number … per Selection Plate” value [2, 15] was 11.3 +/− 2.4, the “Average (n = 12) Number … per Selection Plate” value [2, 16] was 14.3 +/− 3.5 and the “Average (n = 12) Number … per Selection Plate” value [3, 9] was 27.0 +/− 11.2. For the same molecule, the “Average (n = 12) Number … per Selection Plate” value [3, 10] was 21.1 +/− 6.5, the “Average (n = 12) Number … per Selection Plate” value [3, 11] was 19.0 +/− 6.5 and the “Average (n = 12) Number … per Selection Plate” value [3, 12] was 21.6 +/− 8.6. The “Average (n = 12) Number … per Selection Plate” value [3, 13] was 15.1 +/− 4.9, the “Average (n = 12) Number … per Selection Plate” value [3, 14] was 21.9 +/− 8.4 and the “Average (n = 12) Number … per Selection Plate” value [3, 15] was 22.9 +/− 10.1. For the same molecule, the “Average (n = 12) Number … per Selection Plate” value [3, 16] was 21.8 +/− 9.9, the “Average (n = 12) Number … per Selection Plate” value [4, 9] was 3.9 +/− 1.5 and the “Average (n = 12) Number … per Selection Plate” value [4, 10] was 3.3 +/− 2.8. For the same molecule, the “Average (n = 12) Number … per Selection Plate” value [4, 11] was 3.2 +/− 1.4, the “Average (n = 12) Number … per Selection Plate” value [4, 12] was 3.2 +/− 1.5 and the “Average (n = 12) Number … per Selection Plate” value [4, 13] was 2.3 +/− 2.6. For the same molecule, the “Average (n = 12) Number … per Selection Plate” value [4, 14] was 4.5 +/− 1.3, the “Average (n = 12) Number … per Selection Plate” value [4, 15] was 3.1 +/− 2.3 and the “Average (n = 12) Number … per Selection Plate” value [4, 16] was 2.3 +/− 1.1. The “Average (n = 12) Number … per Selection Plate” value [5, 9] was 21.7 +/− 3.6, the “Average (n = 12) Number … per Selection Plate” value [5, 10] was 22.3 +/− 5.4 and the “Average (n = 12) Number … per Selection Plate” value [5, 11] was 23.3 +/− 2.8. For the same molecule, the “Average (n = 12) Number … per Selection Plate” value [5, 12] was 26.0 +/− 6.9, the “Average (n = 12) Number … per Selection Plate” value [5, 13] was 18.6 +/− 5.1 and the “Average (n = 12) Number … per Selection Plate” value [5, 14] was 22.6 +/− 4.3. For the same molecule, the “Average (n = 12) Number … per Selection Plate” value [5, 15] was 21.6 +/− 3.6, the “Average (n = 12) Number … per Selection Plate” value [5, 16] was 21.1 +/− 2.3 and the “Average (n = 12) Number … per Selection Plate” value [6, 9] was 0.3 +/− 0.9. For the same molecule, the “Average (n = 12) Number … per Selection Plate” value [6, 10] was 0.0 +/− 0.0, the “Average (n = 12) Number … per Selection Plate” value [6, 11] was 0.0 +/− 0.0 and the “Average (n = 12) Number … per Selection Plate” value [6, 12] was 0.1 +/− 0.3. The “Average (n = 12) Number … per Selection Plate” value [6, 13] was 0.8 +/− 0.6, the “Average (n = 12) Number … per Selection Plate” value [6, 14] was 1.3 +/− 0.9 and the “Average (n = 12) Number … per Selection Plate” value [6, 15] was 0.3 +/− 0.5. For the same molecule, the “Average (n = 12) Number … per Selection Plate” value [6, 16] was 0.4 +/− 0.8, the “Average (n = 12) Number … per Selection Plate” value [7, 9] was 27.5 +/− 11.4 and the “Average (n = 12) Number … per Selection Plate” value [7, 10] was 34.9 +/− 9.7. For the same molecule, the “Average (n = 12) Number … per Selection Plate” value [7, 11] was 28.8 +/− 11.6, the “Average (n = 12) Number … per Selection Plate” value [7, 12] was 30.9 +/− 9.3 and the “Average (n = 12) Number … per Selection Plate” value [7, 13] was 28.6 +/− 7.6. The “Average (n = 12) Number … per Selection Plate” value [7, 14] was 27.8 +/− 9.0, the “Average (n = 12) Number … per Selection Plate” value [7, 15] was 22.7 +/− 7.0 and the “Average (n = 12) Number … per Selection Plate” value [7, 16] was 27.3 +/− 7.4. For the same molecule, the “Average (n = 12) Number … per Selection Plate” value [8, 9] was 5.8 +/− 2.3, the “Average (n = 12) Number … per Selection Plate” value [8, 10] was 8.8 +/− 4.8 and the “Average (n = 12) Number … per Selection Plate” value [8, 11] was 1.0 +/− 1.0. For the same molecule, the “Average (n = 12) Number … per Selection Plate” value [8, 12] was 0.3 +/− 0.5, the “Average (n = 12) Number … per Selection Plate” value [8, 13] was 5.2 +/− 6.1 and the “Average (n = 12) Number … per Selection Plate” value [8, 14] was 10.0. The “Average (n = 12) Number … per Selection Plate” value [8, 15] was 5.9 +/− 2.4 and the “Average (n = 12) Number … per Selection Plate” value [8, 16] was 5.3 +/− 2.5.
